In US12053441B2, “Formulations for improving the delivery of hydrophobic agents” (THE ROYAL INSTITUTION FOR THE ADVANCEMENT OF LEARNING / …, priority 2018, dated 2024):
Residues, ends and D or L forms follow the SMILES beside them.

Columns and labels:
Mclk1 KO cells = experiment: Viability in glucose-free galactose-containing medium (resazurin reduction assay); assay type: cell-based, mouse
Experimental: Tissue culture and viability assays. […] To score growth and viability in galactose, cells were first grown in high glucose DMEM medium to confluency and then switched to glucose-free DMEM media (Thermo Fisher Cat No 26400036) supplemented with 10 mM galactose (Sigma Cat No G5388), 1 mM sodium pyruvate (Thermo Fisher Cat No 11360070), 10% dialyzed FBS (Thermo Fisher Cat No 26400036) and 1% antibiotic-antimycotic solution. Cell viability was determined by resazurin (Sigma Cat No R7017) reduction assay or crystal violet staining following standard procedures.
The screen uses cells lacking UQ (e.g., Mclk1 KO cells) and consists of three key steps: • 1) Day 0: preparation of Mclk1 KO cells in 96-well plates in standard (glucose-containing) culture medium. • 2) Day 1: changing to glucose-free galactose-containing medium and adding compounds to be screened at a concentration of approximately 10 μM. • 3) Day 4 to 6: following 3 to 5 days of incubation with the compound to be screened, media were removed and cell viability was assayed by resazurin reduction assay.
(§1) The resazurin cell viability assay. Briefly, resazurin was added directly to plates at 1/10 the volume of glucose culture medium. Viable cells with active metabolism can reduce resazurin into resorufin which causes a colour change from blue to pink. After a 2 hr incubation, plates were read on a plate reader (Tecan) to record absorbance at 570 nm and 600 nm. The cell viability was scored as a percentage relative to the signal from untreated glucose-grown wells. Consequently, each screened compound may be described by its effect (no, partial or full rescue) on survival of the KO cells in galactose medium.

cells = experiment: Cellular UQ measurements after treatment with micellar UQ10 solutions (FIG. 22); assay type: cell-based; settings: UQ10 solution prepared with the surfactant, 6 μM UQ10, 1-day
Description: UQ levels are expressed as ng per mg of protein (mean±SEM). Each bar represents the average of 2 to 3 independent measurements. […] ND: not detected. #p<0.0001 (vs. untreated controls; two-way ANOVA followed by Dunnett's multiple comparison test).

Pdss2/Mclk1 DKO cells [1] = experiment: Viability in glucose-free galactose-containing medium (resazurin reduction assay); assay type: cell-based, mouse
Experimental: Tissue culture and viability assays. […] Cell viability was determined by resazurin (Sigma Cat No R7017) reduction assay or crystal violet staining following standard procedures.
as §1
The screen also uses cells lacking UQ biosynthesis (e.g., DKO cells) and its protocol is essentially the same as the galactose-only screen except that in step 2, a minimal amount of UQ10 is added into the galactose screening media at a concentration at which the added UQ10 is insufficient by itself to support survival.

Pdss2/Mclk1 DKO cells [2] = experiment: Oxygen consumption rate (OCR) by Seahorse XF analyzer; assay type: cell-based, mouse
Experimental: Measurement of oxygen consumption by Seaborse XF analyzer. Cells were seeded in XF v7 24-well plates (Seahorse Bioscience) at ˜40,000 cells/well for 24 hr. Prior to the measurements, cell medium was replaced with Seahorse XF base medium supplemented with 5.5 mM glucose (Sigma Cat No G8769), 2 mM Glutamax (Thermo Fisher Cat No 35050061) and 1 mM sodium pyruvate and allowed to equilibrate for 1 hour at 37° C. Oxygen consumption was measured first under baseline condition, followed by subsequent addition of 1 μg/ml oligomycin (Sigma Cat No 04876), 0.8 μM FCCP (Sigma Cat No C2920) and a combination of 1 μM rotenone (Sigma Cat No R8875) and 5 μM antimycin A (Sigma Cat No A8674) to assess the basal and maximal mitochondrial respiration rates. Four baseline measurements were recorded before the consecutive addition of the above-mentioned compounds, and three response measurements were taken after the addition of each compound. Results were finally normalized to protein content determined using the Bradford reagent (Bio-Rad). For experiments that involved culturing cells in the presence of lipoprotein-deficient serum (LPDS), cells were grown in culture medium supplemented with LPDS (Sigma S5394) for 1 week before OCR was measured using a Seahorse XF-24 extracellular flux analyzer as described above.

[3] = Experimental: Solubilization studies. In order to link the surfactant properties of McC1 and its stimulating impact on UQ10 uptake, the solubilization characteristics of McC1 on UQ10 have been determined. First, solubilization test was performed by overnight shaking of a mixture of UQ10 and McC1 in water.
Additional solubilization tests were performed using sonication. Excess amount of UQ10 was mixed with McC1 by sonication for 2 min in water.
Like caspofungin/McC1, surfactin is a cyclic lipopeptide. It is produced from various strains of Bacillus subtilis. Structurally it consists of a peptide chain formed by seven amino acids linked to a β-hydroxyl fatty acid via a lactone bond. It is known for its exceptional surfactant power. […] Then, solubilization test was performed by overnight shaking of a mixture of UQ10 and surfactin in water. The mixture were subjected to brief centrifugation to separate undissolved UQ10 before absorbance of the resultant clear supernatant at 275 nm was measured spectrophotometrically.
Several other surfactants were tested for their ability to solubilize UQ. Briefly, excess amount of UQ10 was mixed with water solution of the tested surfactants using sonication. The resultant suspensions were then filtered through a 0.45 μm syringe filter to remove undissolved UQ10.

wildtype MEFs = experiment: Cellular UQ10 levels (quinone quantification by HPLC); assay type: cell-based, mouse; settings: 1 hour treatment, mouse cells (FIG. 15)
Experimental: (§2) Quantification of quinones. Quinone content was detected and quantified by HPLC as previously described. […] After centrifugation for 5 min at 8,000×g, the hexane layer was collected and evaporated in a vacuum centrifuge. The quinone residue was then dissolved in ethanol and stored at −20° C. until HPLC analysis. The HPLC analysis was performed on a reverse phase C18 column (25.0×0.46 cm, 5 μm, Highchrom) using UV detection at 275 nm (Beckman System Gold). The mobile phase was methanol/ethanol (70:30 v/v) and isocratic elution was used at a flow rate of 1.8 ml/min.

human Hela cells = experiment: as above; assay type: cell-based; settings: 1 hour treatment, human cells (FIG. 15)
Description: (A) UQ levels in wild-type MEFs after treatment with McC1-solubilized form of UQ10. (B) UQ levels in human Hela cells after treatment with McC1-solubilized form of UQ10. Results are shown as the levels of UQ9 (white bars, measured as ng/mg of protein) or UQ10 (black bars, measured as ng/mg of protein) in control conditions (+None), after treatment with a formulation containing McC1-solubilized form of UQ10, or in the presence of UQ10 only (+UQ10). For the 2 treatment conditions in A, the final UQ10 concentrations in the media were the same—2.5 μM. In B, the final UQ10 concentrations in the media were 8 μM for the two treatment conditions. Values are mean±SEM (n=2). ****p<0.0001 (one-way ANOVA).
as §2

[4] = Solubilization of curcumin in water; assay type: physicochemical
Description: It is important to note that in contrast with the other surfactants tested, McC1 is non-toxic and can be used in intravenous injection.

[5] = Drop collapse assay (surfactant activity); assay type: physicochemical
Experimental: Drop collapse assay is a simple detection method of surface active agents. It relies on the capacity of surfactants to destabilize the liquid droplets on an oily surface. The drop-collapsing ability of McC1 along with other known potent surfactants was characterized. For each, 40 ul of compound solution in water was pipetted onto a hydrophobic Parafilm surface and the diameter of the drops was measured 1 min later using a ruler.

[6] = system: mitochondria of wild-type MEFs; experiment: UQ levels in mitochondrial extracts; assay type: cell-based, mouse
Description: FIGS. 7A to 7D present exemplary data showing that McC1 is capable of increasing the uptake of exogenous UQ into cells and mitochondria. (A) Bar chart showing change of UQ10 levels (as measured in ng/μg of protein) in Pdss2/Mclk1 DKO MEFs after treatment with UQ10, McC1 alone, or UQ10 and McC1 in combination. **p<0.01, ***p<0.001 (one-way ANOVA). (B) Bar charts presenting exemplary data showing changes of UQ levels in wildtype MEFs after treatment with UQ10, McC1 alone, or both in combination. Results are shown as cellular UQ10 levels (as provided in ng/μg of protein, left panel) or UQ9 levels (as provided in ng/μg of protein, right panel) in untreated cells, after treatment with 12.5 μM of McC1, after treatment with 2.5 μM of UQ10, or after co-treatment UQ10 and McC1. Results are mean±SEM (n=3). ****p<0.0001 (one-way ANOVA). (C) Bar chart presenting exemplary data showing changes of UQ10 and UQ9 levels in mitochondrial extracts from wildtype MEFs after treatment with UQ10 alone, or in combination with McC1. Results are shown as UQ9 and UQ10 levels in ng/μg of protein. Results are mean±SEM (n=3). ****p<0.0001 (student's t-test). (D) Bar chart presenting exemplary data showing changes of UQ10 level in mitochondrial extracts from Pdss2/Mclk1 DKO MEFs after treatment with UQ10 alone, or in combination with McC1. Results are shown as UQ10 levels (as provided in ng/μg of protein) in untreated DKO cells, after treatment with 2.5 μM of UQ10, or after co-treatment 2.5 μM of UQ10 and 12.5 μM of McC1. ND: Not Detectable. Results are mean±SEM (n=3). ****p<0.0001 (one-way ANOVA).
as §2

Pdss2/Mclk1 DKO MEFs = experiment: Cellular UQ10 levels (quinone quantification by HPLC); assay type: cell-based, mouse; settings: in combination with UQ10, vs UQ10 alone
Experimental: as §2

Molecule: O=C(O)c1ccc(O)cc1O [2,4-DHB, 2,4-dihydroxybenzoic acid]
- survival of Mclk1 KO cells in galactose-containing media (Mclk1 KO cells; sufficiently high dose (FIG. 3A)): allows them to survive in galactose-containing media

Molecule: CCCCCCCCCCCCCC[N+](C)(C)C.[Br-] [TTAB, Tetradecyl trimethyl ammonium bromide]
- cellular uptake of UQ10 compared to adding UQ10 alone (cells): increased cellular uptake of UQ10

Molecule: COC1=C(OC)C(=O)C(C/C=C(\C)CC/C=C(\C)CC/C=C(\C)CC/C=C(\C)CC/C=C(\C)CC/C=C(\C)CC/C=C(\C)CC/C=C(\C)CC/C=C(\C)CCC=C(C)C)=C(C)C1=O [UQ10, ubiquinone-10]
- rescue from galactose-induced cell death by UQ supplementation (Pdss2/Mclk1 DKO cells [1]; if provided at a sufficient amount): sufficient to rescue them from galactose-induced cell death
- rates of mitochondrial respiration (Pdss2/Mclk1 DKO cells [2]; UQ10 at sufficient doses, Mclk1 SKO and Pdss2/Mclk1 DKO cells): increases rates of mitochondrial respiration
- soluble UQ10 in the water-only control [3]: no detectable soluble UQ10
- cellular UQ10 levels (wildtype MEFs): no effect on intracellular UQ10 levels
- cellular UQ10 levels (human Hela cells): no effect on intracellular UQ10 levels
- survival of Mclk1 KO cells in galactose medium (Mclk1 KO cells; UQ10 0.5 μM (FIG. 3C)): little effect
- survival of Mclk1 KO cells in galactose medium (Mclk1 KO cells; UQ10 10 μM (FIG. 3C)): almost full rescue

Molecule: COc1cc(/C=C/C(=O)CC(=O)/C=C/c2ccc(O)c(OC)c2)ccc1O [curcumin]
- solubility of free curcumin in water [4]: very low solubility in water

Molecule: CC(C)CCCCCCCCC[C@@H]1CC(=O)N[C@@H](CCC(=O)O)C(=O)N[C@@H](CC(C)C)C(=O)N[C@H](CC(C)C)C(=O)N[C@@H](C(C)C)C(=O)N[C@@H](CC(=O)O)C(=O)N[C@H](CC(C)C)C(=O)N[C@@H](CC(C)C)C(=O)O1 [surfactin] (HELM PEPTIDE1{E.L.[dL].V.D.[dL].L}|CHEM1{[CC(C)CCCCCCCCC[C@H](CC(=O)[*:1])O[*:2]]}$PEPTIDE1,CHEM1,1:R1-1:R1|PEPTIDE1,CHEM1,7:R2-1:R2$$$V2.0)
- surfactant (drop collapse) activity [5]: potent surfactant activity
- viability rescue of DKO cells (Pdss2/Mclk1 DKO cells [1]; 10 μM surfactin with a small amount of UQ10 (FIG. 17D)): full viability rescue
- survival of DKO cells in galactose medium (Pdss2/Mclk1 DKO cells [1]; compound by itself, no UQ10 added): no effect
- mitochondrial respiration (OCR) compared with UQ10 treatment alone (Pdss2/Mclk1 DKO cells [2]; co-treatment with UQ10): Higher respiration rates
- UQ uptake into mitochondria compared to McC1 ([6]; FIG. 17C right panel): less stimulating action on UQ uptake into mitochondria
- uptake of exogenous UQ10 into mitochondria ([6]; in combination with UQ10, vs UQ10 alone): augmented uptake of UQ into mitochondria
- solubilization power for UQ compared to McC1 [3]: lower solubilization power than McC1
- water solubility of UQ10 in the presence of the compound [3]: increased
- cellular uptake of exogenous UQ10 (Pdss2/Mclk1 DKO MEFs): improves UQ10 uptake into cells

Molecule: Benzalkonium chloride [BAC]
- cellular uptake of UQ10 compared to adding UQ10 alone (cells): increased cellular uptake of UQ10
